Biological target: T1, CDK4/CyclinD1 (Homo sapiens, UniProt P11802)
T1 construct: purchased Thermofisher PR8064A
Experiment: Assay for inhibition of CDK4/CyclinD1 (Caliper microfluidic kinase assay)
Format: biochemical
Conditions: CDK4/CyclinD1
Method: The CDK4 enzyme assay for IC50 determination was performed as follows. Microfluidic kinase detection technology (Caliper) was used to monitor the phosphorylation of peptide substrate by CDK4/CyclinD1. The total reaction volume was 15 μL containing buffer A (100 mM HEPES (pH 7.5), 0.1% BSA, 0.01% Triton X-100, 1 mM DTT, 10 mM MgCl2, 10 μM Sodium Orthovanadate, 10 μM Beta-Glycerophosphate), 200 μM ATP, 1 nM CDK4/CyclinD1 (Thermofisher, PR8064A), 1 μM FL-34 (5-FAM-[…]), and the test compound at appropriate dilutions in DMSO. All components were added to the 384-well plate (Corning, 4514), and incubated at Room Temperature for 3 hours. The reaction was terminated by addition of 15 μL Stop Buffer (180 mM HEPES (pH 7.5), 20 mM EDTA, Coating-3 reagent (PerkinElmer, 760050)). The plate was then loaded on Caliper EZ Reader (EZ Reader II, PerkinElmer, HD-4HYSG2772), and the reaction mixtures including substrate and product were sipped into the microfluidic chip for separation and detection. The IC50 values of the test compound were determined by fitting the inhibition curves by 4 parameter sigmoidal dose-response model using the Xlfit5/GraphPad Prism 5 software.

T1 sequence (P11802 whole entry): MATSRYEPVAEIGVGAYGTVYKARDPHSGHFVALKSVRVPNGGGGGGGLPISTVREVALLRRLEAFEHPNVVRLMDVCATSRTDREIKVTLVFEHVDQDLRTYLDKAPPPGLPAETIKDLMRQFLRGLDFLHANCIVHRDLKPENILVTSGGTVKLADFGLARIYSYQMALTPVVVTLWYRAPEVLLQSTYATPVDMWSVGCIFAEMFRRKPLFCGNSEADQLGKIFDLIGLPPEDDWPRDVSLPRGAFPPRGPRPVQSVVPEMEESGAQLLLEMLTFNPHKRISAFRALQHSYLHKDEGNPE
T1 sequence (P24385 whole entry partner): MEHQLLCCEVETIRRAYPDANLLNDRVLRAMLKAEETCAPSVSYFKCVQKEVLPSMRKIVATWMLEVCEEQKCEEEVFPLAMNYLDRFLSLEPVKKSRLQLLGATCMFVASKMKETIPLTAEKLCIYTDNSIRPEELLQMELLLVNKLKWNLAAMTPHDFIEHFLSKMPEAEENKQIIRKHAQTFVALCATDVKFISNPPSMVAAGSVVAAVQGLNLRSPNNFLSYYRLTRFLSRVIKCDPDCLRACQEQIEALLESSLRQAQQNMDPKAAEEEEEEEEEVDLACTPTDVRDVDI

| IC50 [nM] | Structure (SMILES) |
| --- | --- |
| 10 to 100 | COc1nc(-c2nc(Nc3ccc(N4CCOCC4C)cn3)ncc2F)cc2c1nc(C)n2C(C)C (stereo not shown) [compound 97] |
| 10 to 100 | COc1nc(-c2nc(Nc3ccc(N4CCOC4=O)cn3)ncc2F)cc2c1nc(C)n2C(C)C [compound 85] |
| 10 to 100 | CCN1CCN(c2ccc(Nc3ncc(F)c(-c4cc5c(nc(C)n5C(C)C)c(OC)n4)n3)nc2)CC1=O [compound 105] |
| 10 to 100 | COc1nc(-c2nc(Nc3ccc(N4CCOCC4=O)cn3)ncc2F)cc2c1nc(C)n2C1CCCC1O (stereo not shown) [compound 71] |
| 10 to 100 | COc1nc(-c2nc(Nc3ccc(N4CCOCC4=O)cn3)ncc2F)cc2c1nc(C)n2C(C)CO (stereo not shown) [compound 72] |
| 10 to 100 | COc1nc(-c2nc(Nc3ccc(N4CCC5(CCNC5=O)CC4)cn3)ncc2F)cc2c1nc(C)n2C(C)C [compound 90] |
| 10 to 100 | CCN1CCN(c2ccc(Nc3ncc(F)c(-c4cc5c(nc(C)n5C(C)C)c(OC)n4)n3)nc2)C1=O [compound 89] |

Same assay, conditions: CDK4/CyclinD1, 200 μM ATP

| IC50 [nM] | Structure (SMILES) |
| --- | --- |
| < 10 | CC(C)c1cnn2ccc(-c3ccnc(Nc4ccc(N5CCC(NCCF)CC5=O)cc4)n3)cc12 (stereo not shown) [compound 233] |
| < 10 | CNC1CCCN(c2ccc(Nc3nccc(-c4ccn5ncc(C(C)C)c5c4)n3)c(F)c2)C1=O (stereo not shown) [compound 231] |
| < 10 | CC(C)c1cnn2ccc(-c3ccnc(Nc4ccc(N5CCC(N(C)C)CC5=O)cc4F)n3)cc12 (stereo not shown) [compound 180] |
| < 10 | CC(C)n1cnc2c(F)nc(-c3ccnc(Nc4ccc(N5CCC(C)(N)CC5=O)cc4Cl)n3)cc21 (stereo not shown) [compound 291] |
| < 10 | CC(C)c1cnn2ccc(-c3ccnc(Nc4ccc(N5CCNCC5=O)c(F)c4F)n3)cc12 [compound 229] |
| 10 to 100 | CC(C)n1cnc2c1CN(c1nc(Nc3ccc(S(N)(=O)=O)nc3)ncc1F)CC2 [compound 254] |
| < 10 | CC(C)c1cnn2ccc(-c3ccnc(Nc4ccc(N5CCNCC5=O)c(F)c4)n3)cc12 [compound 228] |
| < 10 | CC(C)c1cnn2ccc(-c3ccnc(Nc4ccc(C(=O)N5CCC(O)C5)cc4)n3)cc12 (stereo not shown) [compound 150] |
| < 10 | COc1cc(N2CCC(N(C)C)CC2=O)ccc1Nc1nccc(-c2cc3c(ncn3C(C)C)c(F)n2)n1 (stereo not shown) [compound 296] |
| 10 to 100 | CC(C)c1cnn2ccc(-c3ccnc(Nc4ccc(C(=O)N5CCC(O)CC5)cc4)n3)cc12 [compound 149] |
| < 10 | CC(C)n1cnc2c1CN(c1nc(Nc3ccc(N4CCNCC4=O)cc3F)ncc1F)CC2 [compound 256] |
| < 10 | CC(C)c1cnn2ccc(-c3ccnc(Nc4ccc(C(=O)N5CCC(N(C)C)CC5)cc4)n3)cc12 [compound 148] |
| 10 to 100 | COc1nc(-c2ccnc(Nc3ccc4c(n3)CCN(C(=O)CC#N)C4)n2)cc2c1ncn2C(C)C [compound 142] |
| < 10 | CC(C)(C)c1cnn2ccc(-c3ccnc(Nc4ccc(N5CCCC(N)C5=O)cc4F)n3)cc12 (stereo not shown) [compound 232] |
| 10 to 100 | Cc1nn2ccc(-c3ccnc(Nc4ccc(S(N)(=O)=O)nc4)n3)cc2c1C(C)C [compound 182] |
| 10 to 100 | Cc1cc(N2CCNCC2=O)ccc1Nc1nccc(-c2ccn3ncc(C(C)C)c3c2)n1 [compound 186] |

Biological target: T2, CDK2/CyclinE1 (Homo sapiens, UniProt P24941)
T2 construct: purchased SignalChem C29-18G
Experiment: Assay for inhibition of CDK2/CyclinE1 (Caliper microfluidic kinase assay)
Format: biochemical
Conditions: CDK2/CyclinE1, 100 μM ATP; read-out: CDK2 IC50
Method: The CDK2 enzyme assay for IC50 determination was performed as follows. Microfluidic kinase detection technology (Caliper) was used to monitor the phosphorylation of peptide substrate by CDK2/CyclinE1. The total reaction volume was 15 μL containing buffer A (100 mM HEPES (pH 7.5), 0.1% BSA, 0.01% Triton X-100, 1 mM DTT, 10 mM MgCl2, 10 μM Sodium Orthovanadate, 10 μM Beta-Glycerophosphate), 100 μM ATP, 5 nM CDK2/CyclinE1 (SignalChem, C29-18G), 5 μM FL-18 (5-FAM-QSPKKG-NH2), and the test compound at appropriate dilutions in DMSO. All components were added to the 384-well plate (Corning, 4514), and incubate at Room Temperature for 3 hours. The reaction was terminated by addition of 15 μL Stop Buffer (180 mM HEPES (pH 7.5), 20 mM EDTA, Coating-3 reagent (PerkinElmer, 760050)). The plate was loaded on Caliper EZ Reader (EZ Reader II, PerkinElmer, HD-4HYSG2772), and the reaction mixtures including substrate and product were sipped into the microfluidic chip for separation and detection. The IC50 values of the test compound were determined by fitting the inhibition curves by 4 parameter sigmoidal dose-response model using the Xlfit5/GraphPad Prism 5 software.

| IC50 [nM] | Structure (SMILES) |
| --- | --- |
| < 10 | CC(C)c1cnn2ccc(-c3ccnc(Nc4ccc(N5CCC(NCCF)CC5=O)cc4)n3)cc12 (stereo not shown) [compound 233] |
| 10 to 100 | CNC1CCCN(c2ccc(Nc3nccc(-c4ccn5ncc(C(C)C)c5c4)n3)c(F)c2)C1=O (stereo not shown) [compound 231] |
| < 10 | CC(C)c1cnn2ccc(-c3ccnc(Nc4ccc(N5CCC(N(C)C)CC5=O)cc4F)n3)cc12 (stereo not shown) [compound 180] |
| < 10 | CC(C)n1cnc2c(F)nc(-c3ccnc(Nc4ccc(N5CCC(C)(N)CC5=O)cc4Cl)n3)cc21 (stereo not shown) [compound 291] |
| < 10 | CC(C)c1cnn2ccc(-c3ccnc(Nc4ccc(N5CCNCC5=O)c(F)c4F)n3)cc12 [compound 229] |
| < 10 | CC(C)n1cnc2c1CN(c1nc(Nc3ccc(S(N)(=O)=O)nc3)ncc1F)CC2 [compound 254] |
| < 10 | CC(C)c1cnn2ccc(-c3ccnc(Nc4ccc(N5CCNCC5=O)c(F)c4)n3)cc12 [compound 228] |
| < 10 | CC(C)c1cnn2ccc(-c3ccnc(Nc4ccc(C(=O)N5CCC(O)C5)cc4)n3)cc12 (stereo not shown) [compound 150] |
| < 10 | COc1cc(N2CCC(N(C)C)CC2=O)ccc1Nc1nccc(-c2cc3c(ncn3C(C)C)c(F)n2)n1 (stereo not shown) [compound 296] |
| < 10 | CC(C)c1cnn2ccc(-c3ccnc(Nc4ccc(C(=O)N5CCC(O)CC5)cc4)n3)cc12 [compound 149] |
| < 10 | CC(C)n1cnc2c1CN(c1nc(Nc3ccc(N4CCNCC4=O)cc3F)ncc1F)CC2 [compound 256] |
| < 10 | CC(C)c1cnn2ccc(-c3ccnc(Nc4ccc(C(=O)N5CCC(N(C)C)CC5)cc4)n3)cc12 [compound 148] |
| > 1000 | COc1nc(-c2ccnc(Nc3ccc4c(n3)CCN(C(=O)CC#N)C4)n2)cc2c1ncn2C(C)C [compound 142] |
| < 10 | CC(C)(C)c1cnn2ccc(-c3ccnc(Nc4ccc(N5CCCC(N)C5=O)cc4F)n3)cc12 (stereo not shown) [compound 232] |
| < 10 | Cc1nn2ccc(-c3ccnc(Nc4ccc(S(N)(=O)=O)nc4)n3)cc2c1C(C)C [compound 182] |
| < 10 | Cc1cc(N2CCNCC2=O)ccc1Nc1nccc(-c2ccn3ncc(C(C)C)c3c2)n1 [compound 186] |

Same assay, conditions: CDK2/CyclinE1; read-out: CDK2 IC50

| IC50 [nM] | Structure (SMILES) |
| --- | --- |
| > 1000 | COc1nc(-c2nc(Nc3ccc(N4CCOCC4C)cn3)ncc2F)cc2c1nc(C)n2C(C)C (stereo not shown) [compound 97] |
| > 1000 | COc1nc(-c2nc(Nc3ccc(N4CCOC4=O)cn3)ncc2F)cc2c1nc(C)n2C(C)C [compound 85] |
| > 1000 | CCN1CCN(c2ccc(Nc3ncc(F)c(-c4cc5c(nc(C)n5C(C)C)c(OC)n4)n3)nc2)CC1=O [compound 105] |
| > 1000 | COc1nc(-c2nc(Nc3ccc(N4CCOCC4=O)cn3)ncc2F)cc2c1nc(C)n2C1CCCC1O (stereo not shown) [compound 71] |
| > 1000 | COc1nc(-c2nc(Nc3ccc(N4CCOCC4=O)cn3)ncc2F)cc2c1nc(C)n2C(C)CO (stereo not shown) [compound 72] |
| > 1000 | COc1nc(-c2nc(Nc3ccc(N4CCC5(CCNC5=O)CC4)cn3)ncc2F)cc2c1nc(C)n2C(C)C [compound 90] |
| > 1000 | CCN1CCN(c2ccc(Nc3ncc(F)c(-c4cc5c(nc(C)n5C(C)C)c(OC)n4)n3)nc2)C1=O [compound 89] |

Reference: patent US20220296595A1, “CDK INHIBITORS” (QILU REGOR THERAPEUTICS INC., priority 2019, published 2022)
